Test results as given in patent publication US6391921B1 (priority 2000, dated 2002).

Assays:
RBL-2H3 mast cells [1] = assay: IgE/antigen induced calcium mobilization in mast cells (fluo-3 imaging); type: cell-based, rat; settings: 30 μM, 20 minutes prior to stimulation with 20 ng/ml DNP-BSA; FIG. 2A
Experimental: To study the effects of compound D-58, RBL-2H3 cells were incubated with compound D-58 at the indicated concentrations or vehicle for 1 hour prior to antigen challenge. Mast cell degranulation (β-hexosaminidase release, % of total) was assessed by measuring the β-hexosaminidase levels in cell free supernatants and Triton X-100 solubilized pellets using the formula: β-hexosaminidase release, % of total=100×(β-hexosaminidase level in supernatant/β-hexosaminidase level in supernatant+solubilized pellet). LTC4 levels in cell free supernatants of mast cells were estimated using standard procedures (ref 24). […]
The results are shown in FIGS. 2A-B. IgE/antigen stimulation of RBL-2H3 mast cells activates a cascade of signal transduction events, which includes tyrosine phosphorylation of several proteins and SYK/BTK-mediated activation of phospholipase C, which generates second messengers inositol 1,4,5-triphosphate (IP3) and 1,2-diacylglycerol (DAG) (ref 7). […] IgE sensitized and Ca^2+ indicator fluo-3/AM loaded RBL-2H3 cells were stimulated with 20 ng/ml antigen (DNP-BSA) in presence of 1 mM calcium chloride and the fluorescence intensity, reflecting the calcium ion concentration was measured. […]
The fluorescent Ca^2+ indicator, fluo-3/AM (Molecular Probes) was used to detect Ca^2+ mobilizations in individual cells (ref 25). […] The background fluorescence was subtracted from each image.

Balb/c mice = assay: IgE-dependent passive cutaneous anaphylaxis (Evans blue dye extravasation); type: in vivo; settings: 25 mg/kg i.p. twice at 1 hour intervals prior to antigen challenge; 30 minutes after challenge; vehicle 0.64±0.08
Experimental: The in vivo biologic activity of compound D-58 was examined in a well characterized murine model of passive cutaneous anaphylaxis. In order to induce passive cutaneous anaphylaxis, left ears of Balb/c mice were sensitized with 50 μg DNP-IgE intradermally. Right ears were injected with equal volumes of saline. Dorsal sides of the ears of Balb/c mice were injected intradermally with 50 μg of DNP-IgE (left ears) or PBS (right ears) using a 30-gauge needle (ref 28). Twenty hours later, mice were challenged with 100 μg antigen (DNP-BSA) in 200 μl 2% Evans blue dye intravenously. Control mice were given PBS (but not antigen) intravenously with 2% Evans blue. For quantitation of Evans blue dye extravasation as a measure of anaphylaxis-associated vascular hyperpermeability, 8 mm^2 skin specimens were removed from the ears of mice, minced in 2 ml formamide and incubated in a 80° C. water bath for 2 hours to extract the dye. The absorbance was read at 570 nm using a spectrophotometer.
For assessment of the vascular leak, animals were sacrificed 30 minutes after the antigen challenge. The plasma exudation was assessed by quantitation of the amount of Evan's blue dye extravasated into the ear skin 30 minutes after the antigen challenge. […]

RBL-2H3 mast cells [2] = assay: Ionomycin or thapsigargin induced calcium mobilization in mast cells; type: cell-based, rat; settings: 30 μM compound for 20 minutes, FIG. 2B
Description: An alternative mechanism for the cells to maintain low cytosolic calcium levels is the activation of cell plasma membrane calcium ATPase or calcium pump (refs 32 and 33). Therefore, the effect of compound D-58 on ionophore and thapsigargin induced calcium mobilization also was studied. Ionomycin takes extracellular calcium inside the cells, and bypasses most of the signal transduction events, whereas thapsigargin inhibits endoplasmic reticulum calcium pump, and selectively depletes IP3-sensitive storage resulting in an increase in the cytosolic calcium levels (ref 33). In summary, IgE-sensitized RBL-2H3 cells were treated with 30 μM compound D-58 for 20 minutes and challenged with DNP-BSA (20 ng/ml). The cells were then stimulated with either ionomycin (1 μM), or thapsigargin (2 μM). The arrows indicate the time points at which the cells were exposed to the agents.
The fluorescent Ca^2+ indicator, fluo-3/AM (Molecular Probes) was used to detect Ca^2+ mobilizations in individual cells (ref 25). Briefly, the IgE sensitized monolayers of mast cells were incubated with 1 μM fluo-3/AM at 37° C. for 30 minutes. After incubation the cells were washed twice and 1 ml PIPES buffer was added to the wells. […] The image acquisition and fluorescence intensity analysis were controlled by the software MetaFluor (Universal Imaging Co.). The background fluorescence was subtracted from each image.

COc1ccc(CC(=O)c2c(O)cc(O)cc2O)cc1 [Compound D-58]
IgE/antigen induced calcium response (RBL-2H3 mast cells [1]): abrogation of calcium mobilization | Evans blue dye extravasation in DNP-IgE injected ears, Absorbance at 570 nm (Balb/c mice): 0.26±0.02 | calcium response induced by ionomycin (RBL-2H3 mast cells [2]; 1 μM ionomycin): did not inhibit | calcium response induced by thapsigargin (RBL-2H3 mast cells [2]; 2 μM thapsigargin): did not inhibit
